Results on one compound are retold here after patent US11512085B2, “Heteroaryl compound having drug activity” (SHANGHAI DUDE MEDICAL TECHNOLOGY CO., LTD, priority 2017, dated 2022).

Common to all, as to format: cell-based
One test relates to Jeko-1. Nature of the test: In vitro tumor cell proliferation (CellTiter-Glo), Jeko-1. The following applies: Homo sapiens, JeKo-1, 72 h; read-out: Growth IC50. On the procedure: (§1) Biological Embodiment 8: Study on Effects of Active Compounds for Inhibiting In Vitro Tumor Cell Proliferation
(§2) Promega CellTiter-Glo cell activity detection kit by luminescence (Promega-G7573).
(§3) Tumor cell lines were cultured in a 5% of CO2 incubator at 37° C. according to respective culture conditions; and periodic passage was performed, and cells positioned in a logarithmic phase were taken for planking.
(§4) 3) 90 μL of cell suspension was added into each well of the culture plate, and a culture solution containing no cell was added into blank control;
(§5) 4) the culture plate was cultured overnight in the 5% of CO2 incubator having relative humidity of 100% at 37° C.
(§6) Preparation of a 400× compound storage plate: the compound was diluted from the maximum concentration gradient to the lowest concentration with DMSO. […]
(§7) The following steps were performed according to the specification of the Promega CellTiter-Glo cell activity detection kit by luminescence (Promega-G7573). […]
(§8) 9) the luminescence signal was detected on the 2104 EnVision plate reader.
(In general: Cellular ATP, detected with luciferase, serves as a proxy for viable cell number.)

For a further test, the system named is Granta-519. As to the kind of experiment: In vitro tumor cell proliferation (CellTiter-Glo), Granta-519. As to conditions: Homo sapiens, Granta-519, 72 h; read-out: Growth IC50. Here is the method: as §1, §2, §3, §4, §5, §6, §7, §8
The test system of the next test is B cells. Nature of the test: B cell activation (anti-human IgM, CD69 staining). The following applies: concentration of 0.1 uM. Here is the method: Biological Embodiment 3: Influences of In-Vitro Test Compounds on PBMC/B/T Cell Activation
4.3 Isolation of B Cells and T Cells
Cell Isolation Programs Shall Refer to […] Kits
4.4.1 Activation of B Cells
The co-culture system is as follows:
Antibody Staining and Data Analysis
Antibody staining was performed within 24 hours […] according to a standard method.
4.5.1 Activation of PBMC and B Cells
LIVE/DEAD Fixable Violet Dead Cell Stain Kit

The next test deals with p-Erk/t-Erk. As to the kind of experiment: Western blotting of p-Erk/t-Erk in anti-IgG stimulated DOHH2 cells. The following applies: DOHH2 cells, 5, 100, 2000 nM, 1 h, anti-IgG stimulation. Here is the method:
Biological Embodiment 4: Analysis of Influences of Test Compounds on p-Btk/t-Btk, p-PLCγ/t-PLCγ and p-Erk/t-Erk Expression Levels of DOHH2 Cells by Virtue of Western Blotting
1) DOHH2 cells on a logarithmic phase were collected;
2) a cell concentration was adjusted to a needed concentration;
3) 2 ml of cell suspension was added into a 6-well plate for performing culture, three different concentrations, that is, 5 nM, 100 nM and 2000 nM, of test samples were respectively set, and each concentration was repeated once;
4) test samples were added into plate wells, and DMSO served as control, wherein a final concentration of the DMSO was 0.1%;
5) culture was performed for 1 h; and […]
6. protein extraction and quantification […]
5) a protein concentration was determined by using Pierce™ BCA Protein Assay Kit; and
6) according to BCA protein quantification results, all samples were diluted to the same final concentration by adding 4×LDS sample buffer and 10× sample reducing agent into the RIPA buffer solution, and the solution was heated at 100° C. for 10 min. […]
10) chemiluminiscence was detected by Tanon 5200 multi.
7. Quantification of strip intensity
Intensity of each strip was quantified by using Image quant densitometry software. […]
For orientation: A western blot detects proteins with antibodies after separation by electrophoresis.

The test system of a further test is WSU-NHL. As to the kind of experiment: In vitro tumor cell proliferation (CellTiter-Glo), WSU-NHL. As to conditions: Homo sapiens, 72 h, read-out: Growth IC50. Here is the method:
as §1, §2, §3, §4, §5, §6, §7, §8

pIC50: −log10 of the molar value.

Take `C=CC(=O)NN1CCCC(n2nc(-c3ccc(Oc4ccccc4)cc3)c3c(N)ncnc32)C1` (centres unmarked) [Embodiment 6, N-(3-(4-amino-3-(4-phenoxyphenyl)-1H-pyrazolo[3,4-D]pyrimidine-1-yl)-1-piperidyl)-acrylamide]: the pIC50 (as a rule, the negative decadic logarithm of the IC50, by convention in mol/L) is < 5.00 in the test with Jeko-1, 5.15 in the test with Granta-519 and 5.99 in the test with WSU-NHL. In addition, in the test with B cells, the “B cell activity inhibition effect” value is listed as “obvious B cell activity inhibition effects”. Also, the “relative level of p-Erk/t-Erk” value with p-Erk/t-Erk was “obviously decreased”.
